The results in this text go back to patent US20240183860A1, “Chimeric ABC Transporters and Screening Methods” (Genentech, Inc., priority 2021, published 2024).

Test [1] concerns the target T1, E. coli MsbA (EcMsbA) (Escherichia coli, UniProt P60752).
T1 construct: FLAG (N); made in house; host or cells: E. coli (strain for the WT protein not restated)
The test can be described thus: MsbA ATPase assay (Transcreener ADP2 FP). The format is biochemical. As for the experimental part:
(§1) The ATPase activity of MsbA was measured using a Transcreener ADP2 FP Assay (BellBrook Labs). […] The final condition for the reaction was MsbA enzyme, 50 μM ATP in 50 mM Tris pH 7.5, 10 mM MgCl2, 1% glycerol, 0.1% bovine gamma globulin, 1 mM dithiothreitol (DTT), 0.007% Brij-35 and 0.5% dimethylsulfoxide (DMSO). The following concentrations were used for each MsbA variant: 5 nM of EcMsbA, EnMsbA, KpMsbA and 80 nM PaMsbA reconstituted in amphipol, 15 nM EcMsbA and EcMsbA-chim5 in LMNG detergent, 22 nM EcMsbA and 27 nM EcMsbA-12G7 complex in aDDM detergent. The enzyme reaction was incubated for 1 hour at room temperature, then quenched by adding the Transcreener Detection Buffer. The IC50 was determined by fitting the inhibition dose-response curve with a nonlinear four-parameter inhibition model (GraphPad Prism).

Test [2] has as its system WT E. coli cells with an intact outer membrane (CFT073, UPEC WT). In words: Cellular IC50 determination (BacTiter-Glo, 6 hours). The test is classed as cell-based, Escherichia coli. As for the experimental part: The cellular IC50's of various bacterial strains (Table 2) were determined.
200 nL aliquots of eight 2-fold dilutions of each compound were dispensed in duplicate into 384-well plates using an Echo Liquid Handler (Labcyte). Strains were grown in cation-adjusted Mueller Hinton Broth with 0.002% Tween overnight for 16 hours, washed with PBS, resuspended at OD600=1 in cation-adjusted Mueller Hinton Broth with 0.002% Tween and 10% glycerol, and frozen in […] aliquots. For each experiment, aliquots were thawed on ice and diluted 1:1000 into cation-adjusted Mueller Hinton Broth with 0.002% Tween. 10 μL cells/well were added to 384-well plates containing compound. Plates were incubated for 6 hours at 37° C., then 10 μL BacTiter-Glo reagent (Promega) was added to each well and luminescence was measured. IC50's were calculated using Genedata Screener software.

Test [3] has as its target Enterobacter cloacae MsbA (EnMsbA). In words: MsbA ATPase assay, amphipol-reconstituted homologue. The format is biochemical. Particulars: FIGS. 13A, 13C. As to the method:
as §1

Test [4] concerns the target T2, Pseudomonas aeruginosa MsbA (PaMsbA) (Pseudomonas aeruginosa, UniProt Q9HUG8).
T2 construct: FLAG; made in house; host or cells: not restated ('similarly expressed')
T2 sequence (Q9HUG8 1-603): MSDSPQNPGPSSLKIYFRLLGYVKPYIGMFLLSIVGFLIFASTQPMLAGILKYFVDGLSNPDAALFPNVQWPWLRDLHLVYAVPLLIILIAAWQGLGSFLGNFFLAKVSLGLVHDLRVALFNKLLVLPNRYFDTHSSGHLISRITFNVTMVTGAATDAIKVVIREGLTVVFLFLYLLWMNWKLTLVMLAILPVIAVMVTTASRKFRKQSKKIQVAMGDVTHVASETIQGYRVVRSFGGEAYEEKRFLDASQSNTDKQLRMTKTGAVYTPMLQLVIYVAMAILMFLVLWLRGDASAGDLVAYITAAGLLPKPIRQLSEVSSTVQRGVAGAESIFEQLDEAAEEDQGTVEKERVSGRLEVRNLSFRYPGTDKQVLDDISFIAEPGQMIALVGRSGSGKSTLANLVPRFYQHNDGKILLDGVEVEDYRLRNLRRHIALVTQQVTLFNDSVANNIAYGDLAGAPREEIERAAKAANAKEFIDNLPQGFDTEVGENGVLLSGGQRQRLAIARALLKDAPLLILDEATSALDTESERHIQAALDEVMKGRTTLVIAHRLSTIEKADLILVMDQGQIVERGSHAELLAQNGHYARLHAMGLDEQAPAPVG
Described as above. The format is biochemical. As to the method: as §1

Test [5] concerns the target Klebsiella pneumoniae MsbA (KpMsbA). Described as above. The format is biochemical. Particulars: FIGS. 13A, 13C. As for the experimental part:
as §1

The subject of test [6] is E. coli CFT073 lptD(imp4213) cells. In words: Electron microscopy of inhibitor-exposed cells (membrane phenotype, LPS transport). The test is classed as cell-based, Escherichia coli. The text has this:
In some embodiments, one or more functional assays may be performed to test the effect of molecules identified in a screen on the function of the parental ABC transporter. For example, in some cases, a molecule that binds to the periplasmic, extracellular, and/or luminal face of an ABC transporter acts as an inhibitor of the transporter. For example, if inhibition of an ABC transporter activity is expected to result in loss of cell viability or reduction of cell growth, for example, then a cell viability or growth assay can be conducted to determine if presence of the identified molecule affects these parameters. In some cases, other assays may be conducted to determine the impact of a molecule on the function of the transporter. In some cases, the transport of the transporter's substrate in the presence and absence of the molecule can be tested. […] Lack of LPS transport causes a stacking of inner and outer membranes at the surface of a bacterial cell that is clearly visible by EM. Appropriate functional assays for the ABC transporter in question are known or may be readily developed based on knowledge in the art.
Electron microscopy of E. coli CFT073 lptD(imp4213) or CFT073 lptD(imp4213) msbA-cond-ko cells rescued with pLMG18 plasmids expressing the indicated E. coli MsbA mutants was performed as described previously (Ho et al., 2018). […]

For test [7], the system named is EcMsbA-chim5 (MsbA-chimera5). The test can be described thus: biochemical. The format is biochemical, Escherichia coli. Particulars: ratio of ATPase IC50s. As for the experimental part: as §1
Test [8] deals with T3, EcMsbA-chim5 (MsbA-chimera5) (Escherichia coli, UniProt P60752, D53T/D54Y/D60K/DEL268-292/DEL57-57/F265A/G55I/I169L/INS266IAYAGNRVIHEDMRSGALIAFIAAL/INS66P/K49D/K58D/L171A/L263V/L51V/L52I/M159V/M67L/P68V/S164D/S62H/T59E/V63D/Y163E).
T3 construct: FLAG (N); made in house; host or cells: E. coli Rosetta 2 (DE3), pET-52b vector
T3 sequence (P60752 with tags, fused parts or gaps with the stated changes): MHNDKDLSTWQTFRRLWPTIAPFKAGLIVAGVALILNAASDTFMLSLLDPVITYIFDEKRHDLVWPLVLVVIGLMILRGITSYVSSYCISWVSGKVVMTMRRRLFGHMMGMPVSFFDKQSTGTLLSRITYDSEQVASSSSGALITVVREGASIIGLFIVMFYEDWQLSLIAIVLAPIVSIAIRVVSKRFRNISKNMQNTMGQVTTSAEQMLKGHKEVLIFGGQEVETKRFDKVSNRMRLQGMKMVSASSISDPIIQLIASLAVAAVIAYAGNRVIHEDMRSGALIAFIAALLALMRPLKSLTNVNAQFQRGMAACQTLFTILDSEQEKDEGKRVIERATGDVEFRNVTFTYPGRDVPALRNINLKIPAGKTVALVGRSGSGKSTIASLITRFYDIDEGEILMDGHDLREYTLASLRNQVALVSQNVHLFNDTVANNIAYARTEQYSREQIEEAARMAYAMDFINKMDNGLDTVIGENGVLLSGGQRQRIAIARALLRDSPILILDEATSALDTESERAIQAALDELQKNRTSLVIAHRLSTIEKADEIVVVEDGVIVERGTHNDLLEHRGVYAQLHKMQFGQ
The test can be described thus: biochemical. The test is classed as biochemical. As to the method:
as §1

The subject of test [9] is imp E. coli (lptD(imp4213)), E. coli MsbA. The test can be described thus: Broth MIC assay. The test is classed as cell-based, Escherichia coli. Particulars: cells containing the lptD(imp4213) allele. As to the method:
Broth MICs were determined in cation-adjusted Mueller-Hinton broth with 0.002% Tween-80, as previously described (Ho et al., 2018).

In brackets after ≈: the same amount, converted by molar mass. Entries after “also recorded” stand apart in the source; their conditions may differ. Bridge positions count the residues as written; N and C are the ends. Square brackets hold non-standard residues; d marks the D form. Peptide text beside a SMILES is read from it. NMeF = CN[C@@H](Cc1ccccc1)C(=O)O Bounds are passed on as bounds.

T1 sequence (P60752 whole entry): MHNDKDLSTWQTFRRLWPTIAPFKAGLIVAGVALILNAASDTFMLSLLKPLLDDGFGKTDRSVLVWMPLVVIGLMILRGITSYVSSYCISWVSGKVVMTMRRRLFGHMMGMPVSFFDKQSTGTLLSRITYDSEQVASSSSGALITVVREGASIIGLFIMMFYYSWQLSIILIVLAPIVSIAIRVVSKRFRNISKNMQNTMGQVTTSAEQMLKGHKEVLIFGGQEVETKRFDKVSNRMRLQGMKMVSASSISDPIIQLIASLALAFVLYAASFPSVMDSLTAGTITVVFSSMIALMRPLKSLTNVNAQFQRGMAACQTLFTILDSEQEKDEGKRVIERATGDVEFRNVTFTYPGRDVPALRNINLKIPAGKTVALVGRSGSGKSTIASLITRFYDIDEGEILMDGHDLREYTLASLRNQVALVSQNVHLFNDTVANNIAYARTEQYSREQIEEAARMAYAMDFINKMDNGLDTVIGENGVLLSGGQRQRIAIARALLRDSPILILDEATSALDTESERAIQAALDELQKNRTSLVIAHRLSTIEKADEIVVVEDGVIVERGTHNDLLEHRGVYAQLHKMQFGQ

As to `CC(C)C[C@@H]1NC(=O)[C@H](Cc2c[nH]c3ccccc23)NC(=O)[C@H](Cc2c[nH]c3ccccc23)NC(=O)[C@H](Cc2ccccc2)NC(=O)CSC[C@@H](C(=O)NCC(N)=O)NC(=O)[C@H](C(C)C)NC(=O)[C@H](Cc2ccccc2)N(C)C(=O)[C@H](Cc2c[nH]c3ccccc23)NC(=O)[C@H](Cc2c[nH]c3ccccc23)NC(=O)[C@H](CO)NC(=O)[C@H](C(C)C)NC(=O)[C@H](CC(=O)O)NC(=O)[C@H](CC(=O)O)NC(=O)[C@H](Cc2c[nH]c3ccccc23)NC1=O` [Compound G1118] ({CH2CO}-FWWLWDDVSWW[NMeF]VCG-NH2; thioether N-14), the IC50 is 0.005 µM in [1] (IC50 for binding to MsbA in an imp E. coli strain, worded as binding to MsbA in imp E. coli strain (outer membrane permeable), FIG. 3F); ~0.11 µM in [1] (half-maximum inhibitory concentration (IC50), ATPase activity of EcMsbA, purified WT EcMsbA, FIG. 3C); ~0.24 µM in [3]; 3.1 µM in [4]; ~0.12 µM in test [5]; > 5 µM in test [8]. In test [2], the “activity on WT E. coli with an intact outer membrane” value is recorded as “no activity was observed”. Also, the “LPS transport activity of E. coli MsbA” value in [6] is given as “inhibit LPS transport activity”. Further, in test [6] (electron micrographs, imp cells treated with inhibitor), the “inner membrane elaboration / membrane stacking phenotype” value is “gave rise to the distinctive inner membrane elaboration phenotype; also recorded: mirrored the distinctive inner membrane elaboration phenotype”. Also, the “lower potency on purified MsbA-chim5 versus EcMsbA” value in test [7] is > 30 fold. Moreover, in test [9], the “minimum inhibitory concentration (MIC)” value is ~210 mg/L (≈ 101 µM).
